According to patent US8546409B2, “Methods of treatment for solid tumors” (priority 2009, dated 2013):
Entries after “also recorded” stand apart in the source; their conditions may differ. Read-outs that look alike come from different tables or passages of the source.

Legend:
NCI-H23 = experiment: NCI panel growth inhibition, NCI-H23; format: cell-based; conditions: Homo sapiens, Non-Small Cell Lung Cancer
From the text: (§1) Compound I has also been tested in a battery of tumor cell assays known as the NCI panel.

A549 = experiment: NCI panel growth inhibition, A549; format: cell-based; conditions: Homo sapiens, Non-Small Cell Lung Cancer
From the text: as §1

ACHN = experiment: NCI panel growth inhibition, ACHN; format: cell-based; conditions: Homo sapiens, Renal
From the text: as §1

[1] = tested on: Akt phosphorylation in OVCAR-3 (ovarian cancer); experiment: Phosphorylation of Akt in OVCAR-3 cells (FIG. 4); format: cell-based; conditions: OVCAR-3, 10 micromolar
From the text: (§2) This distinguishes compound I from other known PI3K inhibitors in development for treatment of solid tumors, which are believed to act primarily at the p110α isoform or on p110α plus other isoforms, or even on all PI3Ks plus mTOR.

DNA-PK = DNA-PK (Homo sapiens, UniProt P78527); experiment: Inhibition of kinase activity of other lipid kinases, DNA-PK; format: biochemical; conditions: read-out: IC-50 for inhibition of kinase activity, DNA-PK
SNB-19 = experiment: NCI panel growth inhibition, SNB-19; format: cell-based; conditions: Homo sapiens, CNS Cancer
From the text: as §1

OVCAR-5 = experiment: NCI panel growth inhibition, OVCAR-5; format: cell-based; conditions: Homo sapiens, Ovarian
From the text: as §1

[2] = mouse
From the text: Bioavailability of Compound I upon oral administration is especially good; even compared to other quinazolinones of similar structures. For example, FIG. 6 illustrates that Compound I produces higher plasma concentrations of drug than another quinazolinone compound having a similar structure (Compound B). […] The degree of difference in oral bioavailability between Compound I and Compound B observed in this test is surprising.
(§3) Treatments of the invention typically involve administration of compound Ito a subject in need of treatment on a daily basis for at least one week or more than one week, often for 2-4 weeks, and sometimes for 1-3 months or more. The half-life of Compound I in vivo in mice and rats is several hours—see FIG. 6. It is thus sometimes desirable to administer compound I in multiple doses each day, in order to maintain efficacious plasma levels over a prolonged period of time. Administration may be done in two doses per day, or three doses per day, or in some embodiments, four doses per day or more, particularly when Compound I is administered orally. Alternatively, Compound I can be administered intravenously at a rate that maintains an efficacious plasma level for a prolonged period of time. Suitably, it would be administered at a rate to achieve a plasma level of at least about 1 micromolar, or at least 3 micromolar, or at least 5 micromolar.

CAKI-1 = experiment: NCI panel growth inhibition, CAKI-1; format: cell-based; conditions: Homo sapiens, Renal
From the text: as §1

p110δ [3] = molecular target: T1, p110δ (Homo sapiens, UniProt O00329); experiment: Cell-based p110δ assay: anti-FcεR1 stimulated CD63 movement to surface of basophils
T1 construct: endogenous in cells
Method: The p110α assay used SW3T3 cells stimulated by PDGF, and p110 kinase activity was measured by Akt phosphorylation. The p110β activity was measured by lysophosphatidic acid stimulation of Akt phosphorylation in mouse embryonic fibroblasts. The activity of p110δ was measured by anti-FcεR1 antibody cross linking stimulation of CD63 movement to the surface of basophils. Finally, the activity of p110γ was measured by fMLP stimulation of CD63 antigen movement to the cell surface of basophils.
T1 sequence (O00329 whole entry, species assumed): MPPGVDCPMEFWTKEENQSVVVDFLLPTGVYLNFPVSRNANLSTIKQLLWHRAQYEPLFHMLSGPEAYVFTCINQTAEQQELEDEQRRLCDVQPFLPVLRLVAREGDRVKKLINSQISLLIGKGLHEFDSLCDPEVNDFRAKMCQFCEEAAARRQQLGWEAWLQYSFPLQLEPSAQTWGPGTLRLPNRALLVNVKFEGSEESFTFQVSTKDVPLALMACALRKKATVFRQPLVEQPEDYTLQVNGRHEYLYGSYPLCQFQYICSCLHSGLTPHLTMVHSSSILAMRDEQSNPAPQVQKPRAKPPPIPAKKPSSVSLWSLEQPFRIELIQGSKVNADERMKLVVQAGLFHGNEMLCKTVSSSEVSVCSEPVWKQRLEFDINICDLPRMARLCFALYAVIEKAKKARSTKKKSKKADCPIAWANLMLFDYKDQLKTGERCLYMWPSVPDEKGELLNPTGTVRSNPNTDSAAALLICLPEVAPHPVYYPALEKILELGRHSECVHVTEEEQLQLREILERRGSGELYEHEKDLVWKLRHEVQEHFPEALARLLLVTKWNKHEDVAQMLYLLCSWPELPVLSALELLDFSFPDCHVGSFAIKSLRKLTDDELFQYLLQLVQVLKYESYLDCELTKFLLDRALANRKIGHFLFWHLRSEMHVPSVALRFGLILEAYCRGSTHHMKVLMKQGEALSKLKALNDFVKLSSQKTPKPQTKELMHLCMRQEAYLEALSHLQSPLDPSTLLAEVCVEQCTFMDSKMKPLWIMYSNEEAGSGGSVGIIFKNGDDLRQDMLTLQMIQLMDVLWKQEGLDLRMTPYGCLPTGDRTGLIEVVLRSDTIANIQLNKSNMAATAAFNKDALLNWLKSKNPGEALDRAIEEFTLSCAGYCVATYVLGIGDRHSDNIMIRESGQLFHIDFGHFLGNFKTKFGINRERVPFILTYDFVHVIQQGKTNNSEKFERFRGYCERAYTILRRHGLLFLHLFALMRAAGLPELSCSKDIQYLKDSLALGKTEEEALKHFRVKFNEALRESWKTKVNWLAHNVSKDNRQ
T1 sequence (P27986 whole entry partner, species assumed): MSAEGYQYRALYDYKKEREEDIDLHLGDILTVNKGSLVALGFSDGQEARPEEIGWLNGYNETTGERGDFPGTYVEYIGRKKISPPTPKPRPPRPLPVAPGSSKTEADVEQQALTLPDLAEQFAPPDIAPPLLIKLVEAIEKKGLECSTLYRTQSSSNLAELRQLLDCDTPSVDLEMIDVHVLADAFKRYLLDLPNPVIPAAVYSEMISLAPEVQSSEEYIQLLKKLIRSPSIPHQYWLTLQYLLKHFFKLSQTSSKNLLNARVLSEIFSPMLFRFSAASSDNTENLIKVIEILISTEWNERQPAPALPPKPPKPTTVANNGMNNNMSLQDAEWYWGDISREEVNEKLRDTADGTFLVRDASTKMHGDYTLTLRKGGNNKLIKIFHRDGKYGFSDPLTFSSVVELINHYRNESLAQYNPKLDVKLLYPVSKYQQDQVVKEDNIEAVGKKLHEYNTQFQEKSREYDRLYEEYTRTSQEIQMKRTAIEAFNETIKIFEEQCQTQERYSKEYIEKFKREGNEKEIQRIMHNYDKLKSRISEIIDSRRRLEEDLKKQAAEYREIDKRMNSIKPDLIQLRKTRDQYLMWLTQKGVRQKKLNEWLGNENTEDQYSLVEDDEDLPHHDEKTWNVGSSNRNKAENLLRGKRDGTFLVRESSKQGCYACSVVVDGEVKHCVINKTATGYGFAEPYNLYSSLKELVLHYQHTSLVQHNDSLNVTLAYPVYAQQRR

mTOR = mTOR (Homo sapiens, UniProt P42345); experiment: Inhibition of kinase activity of other lipid kinases, mTOR; format: biochemical; conditions: read-out: IC-50 for inhibition of kinase activity, mTOR
in vivo = conditions: rat, 60 mg/kg/day
Method: Compound I was dosed at 60, 120, or 240 mg/kg/day administered as a single dose for up to 14 days in healthy rats. […] The peak concentration of compound I (Cmax) and area under the curve (AUC) for tolerated doses were higher than those observed with effective doses of Compound I in the xenograft model tumors in mice.

HOP-92 = experiment: NCI panel growth inhibition, HOP-92; format: cell-based; conditions: Homo sapiens, Non-Small Cell Lung Cancer
From the text: as §1

p110δ [4] = molecular target: T2, p110δ (Homo sapiens, UniProt O00329); experiment: Chick embryo fibroblast (CEF) transformation assay, p110δ; format: cell-based; conditions: read-out: EC-50 for inhibition of functional activity of p110δ
T2 construct: expressed in transfected cells; host or cells: chick embryo fibroblasts (CEF), viral transduction
From the text: Moreover, compound I has comparatively low activity on p110α in a cell-transformation system designed to measure functional activity of these kinases, but is a potent inhibitor of both p110β and p110δ in that assay. See Example 1. This chick embryo fibroblast (CEF) transformation system has been reported as a useful way to assess the functional activity of the PI3K signaling pathway. Denley, et al., “Oncogenic signaling of class I PI3K isoforms,” Oncogene, vol. 27(18), 2561-74 (2008). Transformation of CEF cells in the assay depends upon functional kinase activity. Kang, et al., Proc. Nat'l Acad. Sci. USA, vol. 103(5), 1289-94 (2006). The readout of this assay is based on the frequency of transformation of CEF cells exposed to viral vectors carrying a specific p110 isoform of interest.
Chick embryo fibroblasts (CEF) are transduced with viral stocks with versions of the human genes for the individual PI3K isoforms p110α, p110β, p110δ and p110γ. These transduced CEF lines are then plated in a growth medium where oncogenically transformed cells form foci that can then be stained and counted. […] Denley A, Kang S, Karst U and Vogt PK, “Oncogenic signaling of class 1 PI3K isoforms.” Oncogene (2008) 27: 2561-2574. FIG. 3 illustrates the readout of this assay.
T2 sequence (O00329 whole entry): as the sequence (O00329 whole entry, species assumed) above

OVCAR-3 xenografts = experiment: Ovarian cancer cell xenografts in nu/nu mice (FIG. 8); format: in vivo; conditions: 30 mg/kg BID, 36 days, female nu/nu mice
Method: Female nu/nu mice bearing OVCAR-3 xenografts (human ovarian cancer cells) were maintained until tumor volume measured about 100 mm^3. At that point, treatment began with compound I at a rate of 30 mg/kg administered twice per day.

HOP-62 = experiment: NCI panel growth inhibition, HOP-62; format: cell-based; conditions: Homo sapiens, Non-Small Cell Lung Cancer
From the text: as §1

[5] = tested on: Akt phosphorylation in T47D (breast cancer); experiment: Phosphorylation of Akt in T47D cells (FIG. 4); format: cell-based; conditions: 10 micromolar
From the text: as §2

PIKC3 = PIKC3 (Homo sapiens, UniProt Q8NEB9); experiment: biochemical
From the text: This table provides IC-50's for inhibition of kinase activity of these other lipid kinases: […]

[6] = Half-life in vivo in rats
From the text: as §3

SF-295 = experiment: NCI panel growth inhibition, SF-295; format: cell-based; conditions: Homo sapiens, CNS Cancer
From the text: as §1

Sequence of PIKC3 (Q8NEB9 whole entry): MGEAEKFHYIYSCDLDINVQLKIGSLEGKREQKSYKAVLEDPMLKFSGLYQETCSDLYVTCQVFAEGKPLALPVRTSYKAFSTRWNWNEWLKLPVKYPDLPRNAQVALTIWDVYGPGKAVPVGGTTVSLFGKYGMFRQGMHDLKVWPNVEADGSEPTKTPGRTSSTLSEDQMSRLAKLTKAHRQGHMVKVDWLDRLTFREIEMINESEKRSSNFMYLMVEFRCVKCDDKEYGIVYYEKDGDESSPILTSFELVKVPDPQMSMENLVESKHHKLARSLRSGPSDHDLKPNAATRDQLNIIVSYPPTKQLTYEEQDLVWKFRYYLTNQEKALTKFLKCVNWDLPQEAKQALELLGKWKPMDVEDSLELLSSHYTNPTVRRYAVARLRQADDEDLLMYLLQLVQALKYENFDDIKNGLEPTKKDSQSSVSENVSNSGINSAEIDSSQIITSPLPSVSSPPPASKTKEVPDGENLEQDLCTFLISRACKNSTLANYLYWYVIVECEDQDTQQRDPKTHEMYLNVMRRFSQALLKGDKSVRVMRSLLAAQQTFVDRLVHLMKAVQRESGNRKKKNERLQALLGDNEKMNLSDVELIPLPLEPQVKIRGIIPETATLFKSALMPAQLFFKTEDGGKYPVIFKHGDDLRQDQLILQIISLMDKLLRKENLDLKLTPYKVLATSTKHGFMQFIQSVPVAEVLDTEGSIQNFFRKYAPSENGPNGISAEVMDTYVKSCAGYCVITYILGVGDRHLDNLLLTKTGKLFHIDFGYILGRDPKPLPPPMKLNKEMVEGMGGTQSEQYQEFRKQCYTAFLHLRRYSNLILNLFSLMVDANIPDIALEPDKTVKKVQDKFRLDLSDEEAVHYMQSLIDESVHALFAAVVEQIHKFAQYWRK

C[C@H](Nc1ncnc2[nH]cnc12)c1nc2ccc(F)cc2c(=O)n1-c1ccccc1 [Compound I]
GI50 (NCI-H23): 100 µM | GI50 (A549): 20.7 µM | GI50 (ACHN): 10.7 µM | Phosphorylation of Akt [1]: inhibits phosphorylation of Akt | IC50 (DNA-PK): 13 µM | GI50 (SNB-19): 19.3 µM | GI50 (OVCAR-5): 27.7 µM | Half-life in vivo [2]: several hours | Peak plasma level compared to Compound B ([2]; in vivo, po): higher peak plasma level | Plasma level maintained for several hours ([2]; in vivo, po, 20 mg/kg): about 500 ng/mL | GI50 (CAKI-1): 1.01 µM | EC50 (p110δ [3]; FB, read-out: Cell-based assay EC50 p110δ, FB): 0.0084 µM | EC50 (p110δ [3]; WB, read-out: Cell-based assay EC50 p110δ, WB): 0.019 µM | IC50 (mTOR): 100 µM | AUC (in vivo): 58000 ng·h/mL | Cmax (in vivo): 7300 ng/mL | GI50 (HOP-92): 0.3 µM | EC50 (p110δ [4]): ~0.015 µM | Tumor volume of OVCAR-3 xenograft (OVCAR-3 xenografts): the size of the existing tumor was actually reduced; also recorded: completely inhibited growth; also recorded: Tumor volume actually decreased | GI50 (HOP-62): 14.8 µM | Phosphorylation of Akt [5]: inhibits phosphorylation of Akt | IC50 (PIKC3): 2.5 µM | Half-life in vivo [6]: several hours | GI50 (SF-295): 1.81 µM
